Source: PMC3746001 (ACS chemical biology, 2013)

Tests used:
[1] = target: T1, human DNA polymerase eta (hpol η) (Homo sapiens, UniProt Q9Y253); test: Fluorescence-based polymerase strand-displacement assay, hpol η; type: biochemical; conditions: IC50 for inhibition of hpol η, 10 nM hpol η, 50 nM DNA, 0.1 mM dTTP; mean ± standard deviation, triplicate
T1 sequence (Q9Y253 1-437): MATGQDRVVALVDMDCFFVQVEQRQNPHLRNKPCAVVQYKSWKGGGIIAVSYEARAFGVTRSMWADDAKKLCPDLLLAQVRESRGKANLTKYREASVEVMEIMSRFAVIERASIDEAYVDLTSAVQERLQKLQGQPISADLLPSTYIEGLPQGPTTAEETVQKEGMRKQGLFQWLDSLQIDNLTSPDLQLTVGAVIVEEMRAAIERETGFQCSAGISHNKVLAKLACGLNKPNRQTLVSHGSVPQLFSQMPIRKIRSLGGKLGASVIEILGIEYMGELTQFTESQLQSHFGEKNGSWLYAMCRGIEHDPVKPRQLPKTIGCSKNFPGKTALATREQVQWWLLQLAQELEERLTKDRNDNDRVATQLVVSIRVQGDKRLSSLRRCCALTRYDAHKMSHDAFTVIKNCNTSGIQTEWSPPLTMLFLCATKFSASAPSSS

HIV-1 RT = HIV-1 RT (Human immunodeficiency virus type 1 group M subtype B, UniProt P04585); test: Fluorescence-based polymerase assay, HIV-1 RT; type: biochemical

O=C1NC(=S)NC(=O)C1=Cc1cn(C(=O)c2ccccc2Br)c2ccc(Cl)cc12 [ITBA-12, 5-((1-(2-bromobenzoyl)-5-chloro-1H-indol-3-yl)methylene)-2-thioxodihydropyrimidine-4,6(1H,5H)-dione]
IC50 [1]: 29.8 ± 2.7 µM
IC50 (HIV-1 RT): ~80 µM
